Like-named read-outs stand apart in the source and are kept apart here.
Legend:
[1] = target: MCL-1/Bim interaction (recombinant human MCL-1 protein, residues 171-327; biotinylated human Bim peptide, residues 51-76) (Homo sapiens (Human), UniProt Q07820); test: MCL-1/Bim Binding AlphaLISA Assay; conditions: 0.0625 nM 6xHis-Mcl-1 (171-327), 0.0625 nM biotinylated-Bim peptide
In short: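 Protein 0.0625 nM + cpd, 1 h; add biotin-Bim 0.0625 nM, 2 h; acceptor beads 1 h; donor beads 1 h; AlphaScreen read. Buffer 20 mM Hepes pH 7.5, 150 mM NaCl, 1 mM DTT.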

SKBR3 cells = test: SKBR3 Cell Viability Assay (CellTiter Glo); type: cell-based; conditions: CellTiter Glo luminescence, read-out: MCL-1 CV SKBR3 EC50
In short: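 Viability read as CellTiter Glo luminescence after 72 h of compound exposure at 37° C./5% CO2, using 6,000 SKBR3 cells per well in McCoy 5A with 10% FBS. Percent inhibition scaled between DMSO wells and 10 μM puromycin wells.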

Chain of MCL-1/Bim interaction (recombinant human MCL-1 protein, residues 171-327; biotinylated human Bim peptide, residues 51-76) (Q07820 171-327): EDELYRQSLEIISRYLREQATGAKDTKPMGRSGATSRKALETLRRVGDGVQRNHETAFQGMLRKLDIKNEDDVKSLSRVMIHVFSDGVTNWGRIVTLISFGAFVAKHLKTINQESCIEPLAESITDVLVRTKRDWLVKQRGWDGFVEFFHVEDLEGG

| SMILES | IC50 [1] | EC50 (SKBR3 cells; Homo sapiens, SK-BR-3, 72 h) | EC50 (SKBR3 cells; 72 hours) |
| --- | --- | --- | --- |
| COC[C@@H]1C[C@@H]1NC(=O)N[S@@]1(=O)=NC(=O)c2ccc3c(c2)N(C[C@@H]2CC[C@H]2[C@@H](OC)/C=C/C[C@H](C)C1)C[C@@]1(CCCc2cc(Cl)ccc21)CO3 [Example 315] | 0.127 nM | 164 nM |  |
| CO[C@H]1CCN(C(=O)N[S@@]2(=O)=NC(=O)c3ccc4c(c3)N(C[C@@H]3CC[C@H]3[C@@H](OC)/C=C/C[C@H](C)C2)C[C@@]2(CCCc3cc(Cl)ccc32)CO4)C1 [Example 347] | 0.084 nM | 79.8 nM |  |
| COC1CCn2cc(C(=O)N[S@@]3(=O)=NC(=O)c4ccc5c(c4)N(C[C@@H]4CC[C@H]4[C@@H](OC)/C=C/C[C@H](C)C3)C[C@@]3(CCCc4cc(Cl)ccc43)CO5)cc2C1 (some centres unmarked) [Example 175] | 0.14 nM | 33.9 nM |  |
| CO[C@H]1/C=C/C[C@H](C)C[S@@](=O)(NC(=O)N2CC(Oc3cccnc3)C2)=NC(=O)c2ccc3c(c2)N(C[C@@H]2CC[C@H]21)C[C@@]1(CCCc2cc(Cl)ccc21)CO3 [Example 352] | 0.046 nM | 54.4 nM |  |
| CO[C@H]1/C=C/C[C@H](C)C[S@@](=O)(NC(=O)N2CC(CO)(OC)C2)=NC(=O)c2ccc3c(c2)N(C[C@@H]2CC[C@H]21)C[C@@]1(CCCc2cc(Cl)ccc21)CO3 [Example 267] | 0.03 nM | 184 nM |  |
| CO[C@H]1/C=C/C[C@H](C)C[S@@](=O)(NC(=O)c2cc3n(c2)CCN(C(C)=O)C3)=NC(=O)c2ccc3c(c2)N(C[C@@H]2CC[C@H]21)C[C@@]1(CCCc2cc(Cl)ccc21)CO3 [Example 180] | 0.092 nM | 134 nM |  |
| CO[C@H]1/C=C/C[C@H](C)C[S@@](=O)(NC(=O)N[C@@H]2CCOC2)=NC(=O)c2ccc3c(c2)N(C[C@@H]2CC[C@H]21)C[C@@]1(CCCc2cc(Cl)ccc21)CO3 [Example 155] | 0.06 nM | 43 nM |  |
| COc1nn(C2CC2)cc1C(=O)N[S@@]1(=O)=NC(=O)c2ccc3c(c2)N(C[C@@H]2CC[C@H]2[C@@H](OC)/C=C/C[C@H](C)C1)C[C@@]1(CCCc2cc(Cl)ccc21)CO3 [Example 262] | 0.056 nM | 85.8 nM |  |
| CCOC1CN(C(=O)N[S@@]2(=O)=NC(=O)c3ccc4c(c3)N(C[C@@H]3CC[C@H]3[C@@H](OC)/C=C/C[C@H](C)C2)C[C@@]2(CCCc3cc(Cl)ccc32)CO4)C1 [Example 235] | 0.035 nM | 39.8 nM |  |
| COc1nn(C)cc1C(=O)N[S@@]1(=O)=NC(=O)c2ccc3c(c2)N(C[C@@H]2CC[C@H]2[C@H](O)/C=C/C[C@H](C)[C@H]1C)C[C@@]1(CCCc2cc(Cl)ccc21)CO3 [Example 353] | 0.103 nM | 257 nM |  |
| CO[C@H]1/C=C/C[C@H](C)C[S@@](=O)(NC(=O)N2CC(OC(=O)N(C)C)C2)=NC(=O)c2ccc3c(c2)N(C[C@@H]2CC[C@H]21)C[C@@]1(CCCc2cc(Cl)ccc21)CO3 [Example 292] | 0.02 nM | 45.1 nM |  |
| COc1nn(C(F)F)cc1C(=O)N[S@@]1(=O)=NC(=O)c2ccc3c(c2)N(C[C@@H]2CC[C@H]2[C@@H](OC)/C=C/C[C@H](C)C1)C[C@@]1(CCCc2cc(Cl)ccc21)CO3 [Example 252] | 0.043 nM | 82.7 nM |  |
| COCC1CN(C(=O)N[S@@]2(=O)=NC(=O)c3ccc4c(c3)N(C[C@@H]3CC[C@H]3[C@@H](OC)/C=C/C[C@H](C)C2)C[C@@]2(CCCc3cc(Cl)ccc32)CO4)C1 [Example 346] | 0.031 nM | 30.9 nM |  |
| CO[C@H]1/C=C/C[C@H](C)C[S@@](=O)(NC(=O)N[C@@H]2C[C@]2(C)OC)=NC(=O)c2ccc3c(c2)N(C[C@@H]2CC[C@H]21)C[C@@]1(CCCc2cc(Cl)ccc21)CO3 (single isomer, unassigned) [Example 312] | 0.039 nM | 43.5 nM |  |
| CO[C@H]1/C=C/C[C@H](C)C[S@@](=O)(NC(=O)N2CC(OC(=O)N3CCOCC3)C2)=NC(=O)c2ccc3c(c2)N(C[C@@H]2CC[C@H]21)C[C@@]1(CCCc2cc(Cl)ccc21)CO3 [Example 387] | 0.102 nM | 162 nM |  |
| CO[C@H]1/C=C/CCC[S@@](=O)(NC(=O)NC2(C(F)(F)F)CC2)=NC(=O)c2ccc3c(c2)N(C[C@@H]2CC[C@H]21)C[C@@]1(CCCc2cc(Cl)ccc21)CO3 [Example 32] | 1.4 nM | 1480 nM |  |
| CO[C@H]1/C=C/C[C@H](C)C[S@@](=O)(NC(=O)c2cc3n(n2)CCO3)=NC(=O)c2ccc3c(c2)N(C[C@@H]2CC[C@H]21)C[C@@]1(CCCc2cc(Cl)ccc21)CO3 [Example 219] | 0.099 nM | 146 nM |  |
| COC(=O)N1CCC(OCC(=O)N[S@@]2(=O)=NC(=O)c3ccc4c(c3)N(C[C@@H]3CC[C@H]3[C@@H](OC)/C=C/C[C@H](C)[C@H]2C)C[C@@]2(CCCc3cc(Cl)ccc32)CO4)CC1 [Example 418] | 0.197 nM | 335 nM |  |
| CCC1CN(C(=O)N[S@@]2(=O)=NC(=O)c3ccc4c(c3)N(C[C@@H]3CC[C@H]3[C@@H](OC)/C=C/C[C@H](C)C2)C[C@@]2(CCCc3cc(Cl)ccc32)CO4)C1 [Example 242] | 0.074 nM | 84 nM |  |

| SMILES | IC50 [1] | EC50 (SKBR3 cells; Homo sapiens, SK-BR-3, 72 h) | EC50 (SKBR3 cells; 72 hours) |
| --- | --- | --- | --- |
| CCC(=O)N[S@@]1(=O)=NC(=O)c2ccc3c(c2)N(C[C@@H]2CC[C@H]2[C@@H](OC)/C=C/C[C@H](C)[C@H]1C)C[C@@]1(CCCc2cc(Cl)ccc21)CO3 [Example 2] | 1.5 nM | 792 nM |  |
| CO[C@H]1/C=C/C[C@H](C)C[S@@](=O)(NC(=O)c2cnn(CC3CC3)c2)=NC(=O)c2ccc3c(c2)N(C[C@@H]2CC[C@H]21)C[C@@]1(CCCc2cc(Cl)ccc21)CO3 [Example 419] | 0.186 nM | 135 nM |  |
| CO[C@H]1/C=C/C[C@H](C)C[S@@](=O)(NC(=O)c2cnoc2)=NC(=O)c2ccc3c(c2)N(C[C@@H]2CC[C@H]21)C[C@@]1(CCCc2cc(Cl)ccc21)CO3 [Example 409] | 0.147 nM | 297 nM |  |
| COCC1(NC(=O)N[S@@]2(=O)=NC(=O)c3ccc4c(c3)N(C[C@@H]3CC[C@H]3[C@@H](OC)/C=C/C[C@H](C)C2)C[C@@]2(CCCc3cc(Cl)ccc32)CO4)CC1 [Example 131] | 0.046 nM | 162 nM |  |
| CO[C@H]1/C=C/C[C@H](C)[C@@H](C)[S@@](=O)(NC(=O)c2cnn(C)c2)=NC(=O)c2ccc3c(c2)N(C[C@@H]2CC[C@H]21)C[C@@]1(CCCc2cc(Cl)ccc21)CO3 [Example 138] | 0.112 nM | 60.5 nM |  |
| CO[C@H]1/C=C/CCC[S@@](=O)(NC(=O)Cc2cnccn2)=NC(=O)c2ccc3c(c2)N(C[C@@H]2CC[C@H]21)C[C@@]1(CCCc2cc(Cl)ccc21)CO3 [Example 20] | 0.5 nM | 2060 nM |  |
| CO[C@H]1/C=C/C[C@H](C)C[S@@](=O)(NC(=O)N2CC(C(C)(C)O)C2)=NC(=O)c2ccc3c(c2)N(C[C@@H]2CC[C@H]21)C[C@@]1(CCCc2cc(Cl)ccc21)CO3 [Example 237] | 0.044 nM | 121 nM |  |
| CO[C@H]1/C=C/C[C@H](C)C[S@@](=O)(NC(=O)NC2CC2CC(F)F)=NC(=O)c2ccc3c(c2)N(C[C@@H]2CC[C@H]21)C[C@@]1(CCCc2cc(Cl)ccc21)CO3 (single isomer, unassigned) [Example 282] | 0.086 nM |  | 28.7 nM |
| CO[C@H]1/C=C/CCC[S@@](=O)(NC(=O)CCc2ccccc2C(F)(F)F)=NC(=O)c2ccc3c(c2)N(C[C@@H]2CC[C@H]21)C[C@@]1(CCCc2cc(Cl)ccc21)CO3 [Example 87] | 3.2 nM | 10000 nM |  |
| CO[C@H]1/C=C/C[C@H](C)C[S@@](=O)(NC(=O)[C@H]2C[C@@](C)(O)C2)=NC(=O)c2ccc3c(c2)N(C[C@@H]2CC[C@H]21)C[C@@]1(CCCc2cc(Cl)ccc21)CO3 [Example 165] | 0.035 nM | 45.5 nM |  |
| COCC1(O)CN(C(=O)N[S@@]2(=O)=NC(=O)c3ccc4c(c3)N(C[C@@H]3CC[C@H]3[C@@H](OC)/C=C/C[C@H](C)C2)C[C@@]2(CCCc3cc(Cl)ccc32)CO4)C1 [Example 268] | 0.058 nM | 88.8 nM |  |
| CO[C@H]1/C=C/CCC[S@@](=O)(NC(=O)Cc2cn3ccccc3n2)=NC(=O)c2ccc3c(c2)N(C[C@@H]2CC[C@H]21)C[C@@]1(CCCc2cc(Cl)ccc21)CO3 [Example 86] | 1.8 nM | 4910 nM |  |
| CO[C@H]1/C=C/CCC[S@@](=O)(NC(=O)CCn2cncn2)=NC(=O)c2ccc3c(c2)N(C[C@@H]2CC[C@H]21)C[C@@]1(CCCc2cc(Cl)ccc21)CO3 [Example 42] | 0.1 nM | 3340 nM |  |
| CO[C@H]1/C=C/C[C@H](C)C[S@@](=O)(NC(=O)N[C@@H]2C[C@H]2OC)=NC(=O)c2ccc3c(c2)N(C[C@@H]2CC[C@H]21)C[C@@]1(CCCc2cc(Cl)ccc21)CO3 (single isomer, unassigned) [Example 196] | 0.04 nM |  | 99.2 nM |
| CO[C@H]1/C=C/C[C@H](C)C[S@@](=O)(NC(=O)N2CC3(CCCO3)C2)=NC(=O)c2ccc3c(c2)N(C[C@@H]2CC[C@H]21)C[C@@]1(CCCc2cc(Cl)ccc21)CO3 [Example 231] | 0.051 nM | 40 nM |  |
| CO[C@H]1/C=C/CCC[S@@](=O)(NC(=O)NC(C)C)=NC(=O)c2ccc3c(c2)N(C[C@@H]2CC[C@H]21)C[C@@]1(CCCc2cc(Cl)ccc21)CO3 [Example 19] | 1.1 nM | 1080 nM |  |
| CO[C@H]1/C=C/C[C@H](C)C[S@@](=O)(NC(=O)N2CC(n3ccnc3)C2)=NC(=O)c2ccc3c(c2)N(C[C@@H]2CC[C@H]21)C[C@@]1(CCCc2cc(Cl)ccc21)CO3 [Example 348] | 0.041 nM | 84.7 nM |  |
| CO[C@H]1/C=C/C[C@H](C)C[S@@](=O)(NC(=O)c2cc(CO)n(C)c2)=NC(=O)c2ccc3c(c2)N(C[C@@H]2CC[C@H]21)C[C@@]1(CCCc2cc(Cl)ccc21)CO3 [Example 185] | 0.041 nM | 99.2 nM |  |
